Converted amounts (≈) assume the structure as drawn.
Columns and labels:
[1] = test system: bone marrow cells (differentiation into osteoclasts); experiment: Osteoclast differentiation inhibition: count of tartaric acid-resistant acid phosphatase-positive cells; format: cell-based, C57BL/6 mouse
Procedure: Bone marrow cells were collected from a C57BL/6mouse (female, 6 weeks old) and suspended in RPMI1460 medium that contains 10% fetal calf serum, 1 mM pyruvic acid, 0.1 mM non-essential amino acids (manufactured by Gibco), 500 μM 2-mercaptoethanol, 200 ng/ml parathyroid hormone related protein (PTHrP) and 50 μg/ml L-ascorbic acid and 1 ml of the suspension adjusted to a cell population of 1.5×10^6 cells/well was inoculated on a 24-well microplate. At the same time a test sample was added in appropriate amounts. On days 2 and 4 from the start of the cultivation, half the amount of the medium is exchanged with fresh medium containing the test sample. On day 7 from the start of the cultivation, the medium is removed by suction and the cells are fixed with an acetone:methanol (1:1) solution, to thereby allow tartaric acid-resistant acid phosphatase-positive cells stained. That is, 0.4 ml of a 0.2-M acetate buffer (pH 5.2) containing a staining fluid (0.1 mg/ml Naphthol AS-MX phosphate (Sigma AB), 0.6 mg/ml Fast red violet LB sal (Sigma AB) and 20 mM tartaric acid is added to each well and the resultants are allowed to react at 37° C. for 1 hour. After color development, the number of tartaric acid-resistant acid phosphatase-positive cells, which is an index of differentiation into osteoclasts, is measured under a microscope.
When the test sample contains a substance that is effective for inhibition of osteoclast differentiation, the occurrence of tartaric acid-resistant acid phosphatase-positive cells is inhibited. From changes in the above-mentioned number of cells depending on the concentration of the test sample, an effective concentration range of the test sample can be obtained.

L1210 (leukemia) = experiment: Growth inhibition (MTT) of L1210 cells; format: cell-based, murine; conditions: Mus musculus, 48 hours, read-out: 50% growth inhibition concentration
Procedure: (§1) Note that the tests were performed as follows. Various kinds of murine cancer cells (L1210 (leukemia)), Colon 26 (colon cancer), B16BL6 (malignant melanoma)) were suspended in RPMI1640 medium containing 10% fetal calf serum and adjusted to 2×10^4 cells/well and 0.1 ml of each of the suspensions was seeded on a 96-well plate. At the same time, a predetermined amount of the substance F-1490 was added and the resultants were cultivated at 37° C. for 48 hours in the air containing 5% CO2. Further, 10 μl of 0.5% MTT (3-[4,5-dimethylthiazol-2-yl] […] tetrazolium bromide) was added and the resultants were cultivated for 4 hours. After the cultivation, 0.1 ml of 10% SDS-0.01N hydrochloric acid was added and absorbance at 570 nm was measured to determine 50% growth inhibition concentration.

Colon 26 (colon cancer) = experiment: Growth inhibition (MTT) of Colon 26 cells; format: cell-based, murine; conditions: Mus musculus, Colon26 cells, 48 hours, read-out: 50% growth inhibition concentration
Procedure: as §1

[2] = test system: B16BL6 (malignant melanoma); experiment: Growth inhibition (MTT) of B16BL6 cells; format: cell-based, murine; conditions: Mus musculus, B16-BL6, 48 hours, read-out: 50% growth inhibition concentration
Procedure: as §1

O=C(O)c1cccc2c1NC1CCCCC1(O)O2 (centres unmarked) [Substance F-1490-A]
IC50 ([1]; Mus musculus, Table 1, osteoclast differentiation test, read-out: 50% growth inhibition concentration): 0.65 µg/mL (≈ 2.61 µM) | inhibition at 0.2 µg/mL ([1]; Osteoclast, 168 h, concentration 0.20 μg/ml, day 7, PTHrP-stimulated mouse bone marrow cells, read-out: Inhibition rate of differentiation into osteoclasts (%)): 2% | inhibition at 0.78 µg/mL ([1]; Osteoclast, 168 h, concentration 0.78 μg/ml, day 7, PTHrP-stimulated mouse bone marrow cells, read-out: Inhibition rate of differentiation into osteoclasts (%)): 63% | inhibition at 3.1 µg/mL ([1]; Osteoclast, 168 h, concentration 3.10 μg/ml, day 7, PTHrP-stimulated mouse bone marrow cells, read-out: Inhibition rate of differentiation into osteoclasts (%)): 74% | inhibition at 12.5 µg/mL ([1]; Osteoclast, 168 h, concentration 12.50 μg/ml, day 7, PTHrP-stimulated mouse bone marrow cells, read-out: Inhibition rate of differentiation into osteoclasts (%)): 87% | IC50 (L1210 (leukemia)): > 50 µg/mL | IC50 (Colon 26 (colon cancer)): > 50 µg/mL | IC50 [2]: > 50 µg/mL
